# From patent publication EP0133934A2, “Pharmacologically active 1,3,4-thiadiazol-(3,2-a)-thieno-(2,3-d)-pyrimidin-5-(H)one derivatives” (NIKEPHARMA S.r.l., priority 1983, dated 1985)
# Experiments:
# carrageenin oedema = assay: Antiinflammatory activity: carrageenin oedema in the rat; format: in vivo; conditions: po, 4 h, read-out: OEDEMA INHIBITION % at the fourth hour
# Protocol: (§1) The activity tests were carried out on male Spra gue-Dawley rats weighing 200+20 g and on male Swiss mice weighing 26+3 g.
# (§2) The test compounds were administered orally by means of gastroesophageal tube, in the form of a suspen sion in a 10 ml/kg mucilage of 5% gum arabic; and intraperitoneally in the form of an aqueous suspen sion added with a few drops of Tween 80, in the con stant volume of 10 ml/kg.
# The compounds under test and the control ones were administered orally one hour before the injection of 0.1 ml of 1% carrageenin in the right paw of the animals.
# The volume of the paw was measured by means of a plethysmograph immediately before the injection and 2, 4 and 6 hours after.
# The results were expressed as percentage inhibi tion of the oedema in the treated animals in comparison with the control animals, at the time of the maximum oedema development (fourth hour after the carrageenin injection).
# [1] = test system: Writhing test induced by phenyl-benzoquinone; assay: Phenylbenzoquinone writhing test in the rat; format: in vivo; conditions: Rattus norvegicus, po, 10 min, read-out: % INHIBI-TION
# Protocol: as §1, §2
# acetic acid peritonitis = assay: Anti-exudative activity: acetic acid peritonitis in the rat; format: in vivo; conditions: for EXUDATE VOLUME ml ± E.S.: controls 2.58 ± 0.18
# Protocol: The test was carried out according to the procedure described by Arrigoni-Martelli (Boll.Chim. Far. 107, 29, 1968). This method is based upon the evaluation of the anti-exudative effect of a drug at the peritoneal level, following a intraperitoneal injection of 10 ml/kg of a 0.5% acetic acid solution.
# The compounds under test were administered oral ly one hour before the inflammatory agent; 30 minutes after the treatment the animals were killed and the fluid from the peritoneal cavity was drawn and measured.
# The test compounds were administered by oral route 1 hour before intraperitoneal injection of acetic acid (10 ml/kg of a 0.5% solution).
# The anti-exudative activity was determined on the basis of the peritoneal exudate of the treated animals, in comparison with the controls.
# gastric ulceration = format: in vivo, rat; conditions: os
# Protocol: To rats fasted for 18 hours, with water ad libitum, were administered the compounds under test at "0" time and after 2 hours. Control rats were treated with established anti-inflammatory agents.
# 6 Hours after the beginning of the test, the animals were killed by ether inhalation.
# Gastric ulceration was assessed on the ground of values ranging from 0 to 4: • 0 = no ulceration; • 1 = slight iperhaemia and/or a few ulcers; • 2 = severe iperhaemia and many punctiform ulcers; • 3 = severe submucosal hemorrage, one large ulcer and many punctiform ulcers; • 4 severe submucosal hemorrage and many large ulcers.
# The ulcerogenic index was measured by the following formula (Lwoff. J.M., J. Pharmacol., 2, 81, 1971): [formula]
# [2] = test system: phenylbenzoquinone writhing test; assay: Phenylbenzoquinone writhing test in the mouse (ED50 and duration of effect); format: in vivo; conditions: for % INHI-BITION / N° OF WRITHES IN 10' ml ± E.S.: Table 6, oral, one hour before the test; for N° OF WRITHES IN 10' ml ± E.S.: controls 52.4 ± 1.69; for % INHIBITION / Nº OF WRITHES IN 10' ml ± E.S.: Table 7, oral 1 mg/kg; for Nº OF WRITHES IN 10' ml ± E.S.: controls 53.2 ± 1.26
# Protocol: The analgesic effect was determined by the number of writhes of the abdomen recorded during 10 minutes (from 5 to 15 minutes after the phenylbenzo quinone injection).
# Carrageenin pleuritis = Carrageenin pleuritis in the rat; format: in vivo; conditions: for EXUDATE VOLUME: 30 min. before carrageenin and 6 hours after, exudate at 18 hours, controls 2.76 ± 0.38
# Protocol: Compound HA-34 was tested for the protective activity against the exudative pleuritis reaction induced by carrageenin. HA-34 was administered 30 min. before the injection of carrageenin, and 6 hours after it. The experiment was carried out on male Spra- gue-Dawley rats, anestethized with ethyl urethane, which were subjected, in their right pleural cavity, to injection of 1.5 ml of air and then 0.1 ml of a 1% carrageenin solution, in sterile normal saline, according to the procedure by Van Armann et al. (J. Pharmac. Exp. Ther., 150, 328, 1965). Indometha cin and Piroxicam were employed as the control drugs, under the same conditions. 18 Hours after the intrapleuric carrageenin injec tion, the animals were killed by means of ether inhalation, and the pleuric exudate was collected and measured.
# [3] = 30 min. before phenylbenzoquinone
structure (smiles),measurement,setting,value
"COc1ccc2c(c1)c(CC(=O)O)c(C)n2C(=O)c1ccc(Cl)cc1 [INDO, Indomethacin]",inhibition in vivo at 10 mg/kg,carrageenin oedema,57.3 ± 0.85%
same,inhibition in vivo at 0.5 mg/kg,[1],49%
same,inhibition in vivo at 5 mg/kg,[1],87%
same,inhibition in vivo at 1 mg/kg,"acetic acid peritonitis; Rattus norvegicus, po, Table 4, os, 1 mg/kg",74%
same,inhibition in vivo at 10 mg/kg,"acetic acid peritonitis; Rattus norvegicus, po, Table 4, os, 10 mg/kg",93%
same,inhibition in vivo at 0.1 mg/kg,"acetic acid peritonitis; Rattus norvegicus, po, Table 8, oral, 0.1 mg/kg",37.2%
same,inhibition in vivo at 0.5 mg/kg,"acetic acid peritonitis; Rattus norvegicus, po, Table 8, oral, 0.5 mg/kg",53%
same,inhibition in vivo at 1 mg/kg,"acetic acid peritonitis; Rattus norvegicus, po, Table 8, oral, 1 mg/kg",72.8%
same,inhibition in vivo at 10 mg/kg,"acetic acid peritonitis; Rattus norvegicus, po, Table 8, oral, 10 mg/kg",94.8%
same,ED50,"acetic acid peritonitis; Rattus norvegicus, oral administration 1 hour before i.p. acetic acid",0.3 mg/kg
same,EXUDATE VOLUME ml ± E.S.,"acetic acid peritonitis; Table 8, oral, 0.1 mg/kg, 1 hour before acetic acid",1.62 ± 0.09 mL
same,EXUDATE VOLUME ml ± E.S.,"acetic acid peritonitis; Table 8, oral, 0.5 mg/kg",1.21 ± 0.07 mL
same,EXUDATE VOLUME ml ± E.S.,"acetic acid peritonitis; Table 8, oral, 1 mg/kg",0.70 ± 0.09 mL
same,EXUDATE VOLUME ml ± E.S.,"acetic acid peritonitis; Table 8, oral, 10 mg/kg",0.13 ± 0.04 mL
same,ULCERA-TION INDEX,gastric ulceration,250
same,% ANIMALS WITH ULCERS,gastric ulceration; 20 mg/kg,100%
same,ULCERA-TION DEGREE,"gastric ulceration; 20 mg/kg, scale 0 to 4",2.5
same,ED50,"[2]; Mus musculus, po, 1 h",0.5 mg/kg
same,% INHI-BITION,[2]; 0.1 mg/kg,22.9%
same,N° OF WRITHES IN 10' ml ± E.S.,[2]; 0.1 mg/kg,40.4 ± 2.46
same,% INHI-BITION,[2]; 0.5 mg/kg,48.1%
same,N° OF WRITHES IN 10' ml ± E.S.,[2]; 0.5 mg/kg,27.2 ± 1.48
same,% INHI-BITION,[2]; 1 mg/kg,87.0%
same,N° OF WRITHES IN 10' ml ± E.S.,[2]; 1 mg/kg,6.8 ± 0.76
same,% INHI-BITION,[2]; 5 mg/kg,91.4%
same,N° OF WRITHES IN 10' ml ± E.S.,[2]; 5 mg/kg,4.5 ± 0.65
same,% INHIBITION,[2]; [3],85.5%
same,Nº OF WRITHES IN 10' ml ± E.S.,[2]; [3],7.7 ± 1.18
same,% INHIBITION,[2]; 1 h before phenylbenzoquinone,87.8%
same,Nº OF WRITHES IN 10' ml ± E.S.,[2]; 1 h before phenylbenzoquinone,6.5 ± 0.86
same,% INHIBITION,[2]; 3 h before phenylbenzoquinone,88.3%
same,Nº OF WRITHES IN 10' ml ± E.S.,[2]; 3 h before phenylbenzoquinone,6.2 ± 0.70
same,% INHIBITION,[2]; 4 h before phenylbenzoquinone,87.2%
same,Nº OF WRITHES IN 10' ml ± E.S.,[2]; 4 h before phenylbenzoquinone,6.8 ± 0.64
same,% INHIBITION,[2]; 6 h before phenylbenzoquinone,80.4%
same,Nº OF WRITHES IN 10' ml ± E.S.,[2]; 6 h before phenylbenzoquinone,10.4 ± 0.56
same,% INHIBITION,[2]; 8 h before phenylbenzoquinone,60.3%
same,Nº OF WRITHES IN 10' ml ± E.S.,[2]; 8 h before phenylbenzoquinone,21.2 ± 1.26
same,% INHIBITION,[2]; 24 h before phenylbenzoquinone,53.4%
same,Nº OF WRITHES IN 10' ml ± E.S.,[2]; 24 h before phenylbenzoquinone,24.8 ± 1.15
same,% INHIBITION,[2]; 32 h before phenylbenzoquinone,25.9%
same,Nº OF WRITHES IN 10' ml ± E.S.,[2]; 32 h before phenylbenzoquinone,39.4 ± 1.36
same,% INHIBITION,Carrageenin pleuritis; 5 mg/kg,51.8%
same,EXUDATE VOLUME,Carrageenin pleuritis; 5 mg/kg,1.33 ± 0.34
same,% INHIBITION,Carrageenin pleuritis; 10 mg/kg,72.4%
same,EXUDATE VOLUME,Carrageenin pleuritis; 10 mg/kg,0.76 ± 0.20
